Measured values published in patent US20140038181A1, “CHEMICALLY SUBSTITUTED THERMOSENSITIVE PROBES AND COFACTORS FOR HOT START LIGATION” (TRILINK BIOTECHNOLOGIES, priority 2011, published 2014).
In the oligonucleotide strings, read from the 5' end, every base follows the letter of its sugar. An asterisk marks phosphorothioate; unmarked linkages are phosphodiester. Other units and linkages are bracketed, terminal groups are in braces. A string of capitals states the bases alone. [OXT] = OXT-substituted phosphotriester internucleotide linkage; d = 2'-deoxy (DNA)

Legend:
[1] = tested on: complementary DNA target sequence; assay: UV-melting temperature of complexes of acceptor probes with complementary DNA target sequence; format: physicochemical; details: 2 μM oligonucleotides; for Tm: NaCl 137 mM, KCl 2.7 mM, phosphate buffer pH 7.4, 260 nm; for ΔTm (PDE - PTE): versus unsubstituted acceptor probe, pH 7.4
Tth DNA ligase = Tth DNA ligase (Thermus thermophilus, UniProt P26996); assay: Ligase reaction with OXT-SAP and unsubstituted NAD+ cofactor on matched and mismatched DNA template, PAGE analysis; format: biochemical
Chain of Tth DNA ligase (P26996 whole entry): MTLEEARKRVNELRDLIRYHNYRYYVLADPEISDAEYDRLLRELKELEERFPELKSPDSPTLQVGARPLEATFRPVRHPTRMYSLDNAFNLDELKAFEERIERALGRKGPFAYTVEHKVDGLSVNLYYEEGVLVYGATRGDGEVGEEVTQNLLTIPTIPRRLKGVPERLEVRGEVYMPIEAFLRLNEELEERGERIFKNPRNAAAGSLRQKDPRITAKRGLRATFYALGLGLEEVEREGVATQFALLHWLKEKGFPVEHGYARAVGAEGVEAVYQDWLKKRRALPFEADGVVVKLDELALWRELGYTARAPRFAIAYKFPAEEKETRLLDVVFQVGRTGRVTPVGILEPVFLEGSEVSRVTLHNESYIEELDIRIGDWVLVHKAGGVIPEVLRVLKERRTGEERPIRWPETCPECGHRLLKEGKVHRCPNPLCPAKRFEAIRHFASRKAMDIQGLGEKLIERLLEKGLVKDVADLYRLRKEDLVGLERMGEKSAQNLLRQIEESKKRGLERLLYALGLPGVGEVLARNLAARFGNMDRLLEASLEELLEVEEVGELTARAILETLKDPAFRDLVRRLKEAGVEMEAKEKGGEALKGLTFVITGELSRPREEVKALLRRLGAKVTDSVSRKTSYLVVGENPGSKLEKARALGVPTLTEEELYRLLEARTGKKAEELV
Procedure: The ability of Tth DNA ligase to join an OXT-substituted acceptor and donor probes was assessed on a matched and mismatched DNA template in the presence of NAD+ cofactor (see Table 3 for the sequences employed). Each 20 μL reaction was performed in ligase buffer containing 50 mM Tris-HCl (pH 7.5), 10 mM MgCl2, 10 mM dithiothreitol, 25 μg/ml bovine serum albumin and 1 mM NAD+. The OXT-SAP, unsubstituted donor probe and DNA template were at equimolar 0.1 μM concentration. To prevent premature uncontrollable cleavage of the OXT groups from OXT-SAP, the preparation of the ligation mixture was performed in three steps.
First, a binary template-donor complex was prepared by mixing the DNA template and donor strands in ligation buffer, heating the mixture at 95° C. for 2 min, slowly cooling to 4° C. over 15 min, and keeping mixture at 4° C. for 1 hour.
Second, the OXT-SAP was added to the mixture and allowed to stay at 4° C. for 12 hours.
Third, a solutions of NAD+ in ligation buffer was added and ligation was initiated by adding 2 units of Tth DNA ligase to reaction mixture. Ligation proceeded at room temperature for 1 hr and analyzed by PAGE on TBE-Urea denaturing 15% gel (FIG. 12).

[2] = Thermal conversion of 2′,3′-substituted ATP to unsubstituted ATP in ligase buffer at 95° C. (HPLC); format: physicochemical; details: 1 mM 2′,3′-substituted ATP
Procedure: The reactions were monitored by analysis of the aliquot of incubated mixture by reverse-phase and anion-exchange HPLC.

T4 DNA ligase = molecular target: T1, T4 DNA ligase (Enterobacteria phage T4, UniProt P00970); format: biochemical, bacteriophage T4
T1 construct: purchased New England Biolabs
T1 sequence (P00970 whole entry, looked up): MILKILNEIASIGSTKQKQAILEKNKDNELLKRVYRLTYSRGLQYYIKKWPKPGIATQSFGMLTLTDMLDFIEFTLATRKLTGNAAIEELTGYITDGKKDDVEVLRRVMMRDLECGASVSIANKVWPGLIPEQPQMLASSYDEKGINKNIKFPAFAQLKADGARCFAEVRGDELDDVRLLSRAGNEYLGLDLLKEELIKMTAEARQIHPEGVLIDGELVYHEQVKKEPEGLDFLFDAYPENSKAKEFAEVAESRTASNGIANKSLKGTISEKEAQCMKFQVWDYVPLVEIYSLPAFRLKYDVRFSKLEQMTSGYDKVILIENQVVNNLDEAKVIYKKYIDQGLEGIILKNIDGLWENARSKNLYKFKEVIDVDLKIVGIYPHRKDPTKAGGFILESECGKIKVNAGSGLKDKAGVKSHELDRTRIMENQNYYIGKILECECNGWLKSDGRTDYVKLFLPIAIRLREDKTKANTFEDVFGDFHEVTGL

Q: Which Tm [1] does the source give for “Unsubstituted: TACTATGGTCCACACAACTATTGCT (Table 7 acceptor probe) (DNA TACTATGGTCCACACAACTATTGCT; acceptor probe, label not given here) [reference compound]” here?
A: 68.9 °C

Q: For “Double OXT23: TACTATGGTCCACACAACTATT(OXT)G(OXT)C T (DNA dTdAdCdTdAdTdGdGdTdCdCdAdCdAdCdAdAdCdTdAdTdT[OXT]dG[OXT]dCdT)”, which Tm [1] is on record?
A: 65.4 °C

Q: What about the “ΔTm (PDE - PTE)” value [1] of the same molecule?
A: −3.5 °C

Q: With “Single OXT2: TACTATGGTCCACACAACTATTG(OXT)C T (DNA dTdAdCdTdAdTdGdGdTdCdCdAdCdAdCdAdAdCdTdAdTdTdG[OXT]dCdT)” as the molecule, how does the Tm [1] read?
A: 66.6 °C

Q: What about the “ΔTm (PDE - PTE)” value [1] of the same molecule?
A: −2.3 °C

Q: What does the source list for “unsubstituted acceptor probe: CCCTGTTCCAGCGTCGGTGTTGCGTT (Table 3) (unmodified DNA)”?
A: formation of ligation product (Tth DNA ligase; matched template, additionally incubated 1 h at 75° C.): ample formation of ligation product; formation of ligation product (Tth DNA ligase; matched template, room temperature, 1 hr): efficient formation of ligation product; formation of ligation product (Tth DNA ligase; mismatched DNA template, 120 hrs of incubation): a small amount of ligation product was formed; formation of ligation product (Tth DNA ligase; mismatched DNA template, 120 hrs, additionally incubated 1 h at 75° C.): substantial accumulation of ligation product

Q: Which “Concentration of unsubstituted ATP” value ([2]; ligase buffer pH 7.5, 5 min) does the source give for `Nc1ncnc2c1ncn2[C@@H]1O[C@H](COP(=O)(O)OP(=O)(O)OP(=O)(O)O)[C@@H](OC2CCCO2)[C@H]1OC1CCCO1` (stereo partly shown) [—O(THF), 2′,3′-O-bis-tetrahydrofuranyl-adenosine-5′triphosphates] here?
A: 2.8 µM

Q: And the “Concentration of unsubstituted ATP” value ([2]; ligase buffer pH 7.5, 10 min)?
A: 4.6 µM

Q: And the “Concentration of unsubstituted ATP” value ([2]; ligase buffer pH 7.5, 20 min)?
A: 17.3 µM

Q: And the “Concentration of unsubstituted ATP” value ([2]; ligase buffer pH 7.5, 45 min)?
A: 72.7 µM

Q: And the “Concentration of unsubstituted ATP” value ([2]; ligase buffer pH 7.5, 80 min)?
A: 182.2 µM

Q: For `Nc1ncnc2c1ncn2[C@@H]1O[C@H](COP(=O)(O)OP(=O)(O)OP(=O)(O)O)[C@@H](O)[C@H]1O` [unsubstituted ATP, ATP], which “formation of ligation product” value (T4 DNA ligase) is on record?
A: ample formation of 80(+)-mer ligation product

Q: Which Tm [1] does the source give for “Single OXT1: TACTATGGTCCACACAACTATTGC (OXT)T (DNA dTdAdCdTdAdTdGdGdTdCdCdAdCdAdCdAdAdCdTdAdTdTdGdC[OXT]dT)” here?
A: 67.5 °C

Q: What about the “ΔTm (PDE - PTE)” value [1] of the same molecule?
A: −1.4 °C

Q: Which results are given for “Double OXT12: TACTATGGTCCACACAACTATTG(OXT)C (OXT)T (DNA dTdAdCdTdAdTdGdGdTdCdCdAdCdAdCdAdAdCdTdAdTdTdG[OXT]dC[OXT]dT)”?
A: Tm [1]: 66.2 °C; ΔTm (PDE - PTE) [1]: −2.6 °C
